We go through 1 compound from US20240132458A1, “NLRP3 INFLAMMASOME SMALL-MOLECULE INHIBITOR FOR TREATMENT OF ALZHEIMER'S DISEASE” (AJOU UNIVERSITY INDUSTRY-ACADEMIC COOPERATION FOUNDATION, priority 2021, published 2024).

The test system of series [1] is NLRP3 signaling pathway (IL-1β, caspase 1). The series can be described thus: Western blot of the NLRP3 signaling pathway. It is filed as cell-based, human. The conditions noted are these: 10 μM, PMA-differentiated THP-1, LPS/nigericin. Here is the method:
Cytoplasmic proteins were extracted using NE-PERTM Nuclear and Cytoplasmic Extraction Reagent (Thermo Fisher Scientific, Inc.), and the total-protein was measured using a Bicinchoninic (BCA) assay kit (Sigma-Aldrich Co.). The proteins were separated by SDS-PAGE and transferred to a membrane using a Mini-PROTEAN Tetra Cell and Mini Trans-Blot Electrophoretic Transfer Cell System (Bio-Rad Laboratories, Hercules, CA, USA). The membranes were blocked with skim milk (5%) for 1 hour, and immunoblotted with antibodies against NLRP3, IL-1β, mature IL-1β (Cell Signaling Technology Inc., Danvers, MA, USA), caspase 1 and β-actin (Santa Cruz Biotechnology Inc., Dallas, TX, USA) at 4° C. overnight. After washing with PBS supplemented with 0.1% of Tween 20, the membranes were treated with a peroxidase-conjugated anti-rabbit or anti-mouse IgG antibody (1:1,000) for 2 hours at room temperature. The SuperSignal West Pico ECL solution (Thermo Fisher Scientific, Inc.) was used to detect protein bands that were visualized on a ChemiDocm Touch Imaging System (Bio-Rad Laboratories).

For a further series, the target named is T1, CYP2C19 (Homo sapiens, UniProt P33261).
T1 construct: pooled human liver microsomes were assayed at 0.25 mg/mL concentration; from tissue; host or cells: pooled human liver microsomes
T1 sequence (P33261 whole entry): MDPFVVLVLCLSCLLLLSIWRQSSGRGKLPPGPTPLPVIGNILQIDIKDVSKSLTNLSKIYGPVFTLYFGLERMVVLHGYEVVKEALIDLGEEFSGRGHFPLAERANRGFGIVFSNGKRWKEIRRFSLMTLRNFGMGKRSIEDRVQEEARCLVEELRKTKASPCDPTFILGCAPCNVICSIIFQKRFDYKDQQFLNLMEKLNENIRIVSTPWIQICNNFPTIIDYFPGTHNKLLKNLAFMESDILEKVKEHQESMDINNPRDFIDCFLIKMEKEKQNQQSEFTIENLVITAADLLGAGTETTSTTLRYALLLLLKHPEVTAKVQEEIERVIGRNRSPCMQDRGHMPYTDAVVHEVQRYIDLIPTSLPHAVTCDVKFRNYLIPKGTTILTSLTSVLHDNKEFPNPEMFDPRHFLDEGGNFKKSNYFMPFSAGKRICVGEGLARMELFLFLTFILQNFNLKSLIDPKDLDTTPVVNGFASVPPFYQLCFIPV
The series can be described thus: Cytochrome P450 inhibition. The conditions noted are these: probe mephenytoin (4-hydroxylation), pooled human liver microsomes 0.25 mg/mL, read-out: CYP inhibition (% at 10 μM) 2C19. In kind it is in vitro ADME. On the procedure:
(§1) The inhibitory effects of NIC7 and NIC7w on the metabolism of the five major P450 probe substrates were evaluated using a previously reported method (S. Seino, Diabetologia 55, 2096-2108 (2012)) with minor modifications. A cocktail of substrates (phenacetin O-deethylase, tolbutamide 4-hydroxylase, mephenytoin 4-hydroxylase, dextromethorphan O-demethylase, and midazolam 1′-hydroxylase) was used for five major P450 enzymes, CYP1A2, CYP2C9, CYP2C19, CYP2D6, and CYP3A4, respectively. NIC7 and NIC7w were prepared at a concentration of 10 mM in DMSO and dissolved in methanol at a concentration of 1 mM. In all experiments, the final concentration of an organic solvent (methanol) for cocktail incubation was set at 1.0% (v/v). Both NIC7 and NIC7w were used at 10 μM, and pooled human liver microsomes were assayed at 0.25 mg/mL concentration. The substrate cocktail solution was incubated with the microsomes for 5 min at 37° C. The reaction was initiated by adding an NADPH-generating system (the same as described in Examples 1-5) at 37° C. and 1300 rpm. The reaction was stopped at 10 min by the addition of cold acetonitrile containing carbamazepine as an internal standard at 20 ng/mL. After vortexing and centrifugation, the supernatant was analyzed with LC-MS/MS. All microsomal incubations were performed in triplicate.
(Liver microsomes are a subcellular fraction often used to study metabolism.)

Another series concerns the target T2, CYP1A2 (Homo sapiens, UniProt P05177).
T2 construct: pooled human liver microsomes were assayed at 0.25 mg/mL concentration; from tissue; host or cells: pooled human liver microsomes
T2 sequence (P05177 1-516): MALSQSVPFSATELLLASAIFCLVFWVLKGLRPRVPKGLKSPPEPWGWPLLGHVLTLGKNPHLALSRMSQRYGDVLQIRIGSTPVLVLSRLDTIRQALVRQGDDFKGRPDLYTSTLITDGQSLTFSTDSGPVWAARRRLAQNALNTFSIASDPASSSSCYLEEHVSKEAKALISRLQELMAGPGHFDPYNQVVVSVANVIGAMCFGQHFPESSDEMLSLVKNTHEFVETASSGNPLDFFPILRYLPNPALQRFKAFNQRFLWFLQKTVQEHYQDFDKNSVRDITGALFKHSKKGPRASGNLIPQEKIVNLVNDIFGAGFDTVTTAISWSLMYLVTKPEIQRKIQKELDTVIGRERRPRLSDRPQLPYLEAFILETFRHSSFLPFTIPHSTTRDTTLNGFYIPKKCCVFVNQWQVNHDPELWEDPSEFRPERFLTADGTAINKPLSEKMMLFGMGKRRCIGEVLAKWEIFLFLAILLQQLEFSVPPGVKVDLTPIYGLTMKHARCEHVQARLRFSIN
The series can be described thus: Cytochrome P450 inhibition. It is filed as in vitro ADME. To be noted: probe phenacetin (O-deethylation), pooled human liver microsomes 0.25 mg/mL, read-out: CYP inhibition (% at 10 μM) 1A2. Here is the method: as §1

The next series has as its target T3, NLRP3 (Homo sapiens, UniProt Q96P20).
T3 construct: THP-1 cells (10^5/well) were differentiated with PMA (80 nM, 48 hours) in a 96-well plate; endogenous in cells; host or cells: PMA-differentiated, LPS-primed THP-1 cells
The series can be described thus: Inhibition of NLRP3 by IL-1β secretion level (ELISA). It is filed as cell-based. The conditions noted are these: PMA-differentiated THP-1, LPS (10 ng/mL) 4 hours, compound 1 hour, nigericin (10 μM) 1 hour. On the procedure: THP-1 cells (10^5/well) were differentiated with PMA (80 nM, 48 hours) in a 96-well plate (BD Biosciences). The differentiated macrophages were primed with LPS (10 ng/mL) for 4 hours. Thereafter, the cells were treated with each compound for 1 hour in a serum-free medium, followed by activation of NLRP3 by nigericin for an additional 1 hour. The supernatant was collected and the inhibition of human IL-1β secretion was analyzed using the Human IL-1β Uncoated ELISA Kit (Thermo Fisher Scientific, Inc.). A microplate spectrophotometer system (Molecular Devices) was employed to read absorbance in the plate.
Background: An ELISA detects its analyte on a solid surface through an enzyme-linked reagent.

“Also recorded” adds a separate entry of the source.

T3 sequence (Q96P20 whole entry): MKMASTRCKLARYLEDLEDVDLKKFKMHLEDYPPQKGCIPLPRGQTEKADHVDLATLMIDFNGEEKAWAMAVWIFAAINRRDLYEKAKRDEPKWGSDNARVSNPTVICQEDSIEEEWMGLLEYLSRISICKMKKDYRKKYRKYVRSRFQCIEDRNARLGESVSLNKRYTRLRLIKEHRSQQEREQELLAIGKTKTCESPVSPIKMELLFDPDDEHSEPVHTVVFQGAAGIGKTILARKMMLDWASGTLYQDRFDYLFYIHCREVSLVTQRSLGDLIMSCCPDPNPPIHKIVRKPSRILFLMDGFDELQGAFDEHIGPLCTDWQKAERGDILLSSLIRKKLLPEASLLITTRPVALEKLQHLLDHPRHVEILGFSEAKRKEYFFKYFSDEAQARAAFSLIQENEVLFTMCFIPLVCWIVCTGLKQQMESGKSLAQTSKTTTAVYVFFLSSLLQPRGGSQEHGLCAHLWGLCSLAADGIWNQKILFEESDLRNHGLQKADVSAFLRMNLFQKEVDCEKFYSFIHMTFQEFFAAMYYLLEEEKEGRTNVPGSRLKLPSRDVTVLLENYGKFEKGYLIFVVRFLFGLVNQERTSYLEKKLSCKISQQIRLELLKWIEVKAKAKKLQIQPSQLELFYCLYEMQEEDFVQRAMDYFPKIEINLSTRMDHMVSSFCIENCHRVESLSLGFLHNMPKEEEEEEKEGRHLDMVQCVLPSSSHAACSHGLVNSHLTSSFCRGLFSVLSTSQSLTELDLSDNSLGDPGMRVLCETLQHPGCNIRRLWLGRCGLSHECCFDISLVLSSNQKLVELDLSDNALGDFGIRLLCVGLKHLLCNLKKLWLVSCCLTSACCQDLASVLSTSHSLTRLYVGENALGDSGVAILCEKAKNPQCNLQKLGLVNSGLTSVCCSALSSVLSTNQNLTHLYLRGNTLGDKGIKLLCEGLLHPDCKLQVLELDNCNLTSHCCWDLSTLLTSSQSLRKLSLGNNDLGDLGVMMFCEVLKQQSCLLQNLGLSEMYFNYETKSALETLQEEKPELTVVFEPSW

Consider `CC(=O)c1cccc(NC(=O)Nc2ccc3sc(NS(=O)(=O)c4ccc(C)cc4)nc3c2)c1` [NIC7, N-(5-(3-(3-acetylphenyl)ureido)benzo[d]thiazol-2-yl)-4-methylbenzenesulfonamide], for which, in series [1], the “inhibition of IL-1β and caspase 1 (Western blot)” value was “inhibition”. In addition, the inhibition at 10 min, 10 µM on CYP2C19 and on CYP1A2 was under 1% throughout. For the same compound, the “inhibition of IL-1β secretion caused by NLRP3” value at NLRP3 is recorded as “highest potency; also recorded: significant inhibition”.
